Measurements reported in PubChem BioAssay AID1963844 (Molecular Pharmacology Branch, DTP, NCI, 2024).
pIC50: −log10 of the molar value.

Tested on: 422866-222-R5-J1-PDC complex spheroid viability
Test: Anticancer human tumor 422866-222-R5-J1-PDC patient-derived pancreatic adenocarcinoma cell line growth inhibition [POLQ]
Conditions: for pIC50: curve of first compound; for viability, T/C: stronger effect = lower value
Procedure, shortened: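 Complex spheroid viability model combining PDC tumour cells with endothelial (HUVEC) and MSC stromal cells. Novobiocin, ART-558 or RP6685 were tested singly and in combination with standard and investigational anticancer drugs. Each was titrated in half-log steps from near clinical Cmax, or from 10 microM where Cmax was unknown.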

[1] = second compound 0.0316 µM, first compound 0.0316 µM
[2] = second compound 0.0316 µM, first compound 0.1 µM
[3] = second compound 0.0316 µM, first compound 0.316 µM
[4] = second compound 0.0316 µM, first compound 1 µM
[5] = second compound 0.0316 µM, first compound 3.16 µM
[6] = second compound 0.0316 µM, first compound 10 µM
[7] = second compound 0.1 µM, first compound 0.0316 µM
[8] = second compound 0.1 µM, first compound 0.1 µM
[9] = second compound 0.1 µM, first compound 0.316 µM
[10] = second compound 0.1 µM, first compound 1 µM
[11] = second compound 0.1 µM, first compound 3.16 µM
[12] = second compound 0.1 µM, first compound 10 µM
[13] = second compound 0.316 µM, first compound 0.0316 µM
[14] = second compound 0.316 µM, first compound 0.1 µM
[15] = second compound 0.316 µM, first compound 0.316 µM
[16] = second compound 0.316 µM, first compound 1 µM
[17] = second compound 0.316 µM, first compound 3.16 µM
[18] = second compound 0.316 µM, first compound 10 µM
[19] = second compound 1 µM, first compound 0.0316 µM
[20] = second compound 1 µM, first compound 0.1 µM
[21] = second compound 1 µM, first compound 0.316 µM
[22] = second compound 1 µM, first compound 1 µM
[23] = second compound 1 µM, first compound 3.16 µM
[24] = second compound 1 µM, first compound 10 µM
[25] = second compound 3.16 µM, first compound 0.0316 µM
[26] = second compound 3.16 µM, first compound 0.1 µM
[27] = second compound 3.16 µM, first compound 0.316 µM
[28] = second compound 3.16 µM, first compound 1 µM
[29] = second compound 3.16 µM, first compound 3.16 µM
[30] = second compound 3.16 µM, first compound 10 µM
[31] = second compound 10 µM, first compound 0.0316 µM
[32] = second compound 10 µM, first compound 0.1 µM
[33] = second compound 10 µM, first compound 0.316 µM
[34] = second compound 10 µM, first compound 1 µM
[35] = second compound 10 µM, first compound 3.16 µM
[36] = second compound 10 µM, first compound 10 µM
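Further: spheroids exposed to compounds for one week before readout.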
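Wherever viability, T/C is given: percent of DMSO vehicle wells luminescence so 100% = untreated viability.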

## CCCS(=O)(=O)Nc1ccc(F)c(C(=O)c2c[nH]c3ncc(-c4ccc(Cl)cc4)cc23)c1F + Nc1ccc(C#CCN(C(=O)Cc2ncc(C(F)(F)F)cc2C(F)(F)F)c2ccc(F)cc2)nn1
Second compound 0.0316 µM
  pIC50: < 5.00
Second compound 0.1 µM
  pIC50: < 5.00
Second compound 0.316 µM
  pIC50: < 5.00
Second compound 1 µM
  pIC50: < 5.00
Second compound 3.16 µM
  pIC50: < 5.00
Second compound 10 µM
  pIC50: < 5.00
[1]
  viability, T/C: 101%
[2]
  viability, T/C: 103%
[3]
  viability, T/C: 107%
[4]
  viability, T/C: 181%
[5]
  viability, T/C: 197%
[6]
  viability, T/C: 118%
[7]
  viability, T/C: 115%
[8]
  viability, T/C: 107%
[9]
  viability, T/C: 115%
[10]
  viability, T/C: 182%
[11]
  viability, T/C: 173%
[12]
  viability, T/C: 118%
[13]
  viability, T/C: 105%
[14]
  viability, T/C: 96.4%
[15]
  viability, T/C: 113%
[16]
  viability, T/C: 162%
[17]
  viability, T/C: 164%
[18]
  viability, T/C: 129%
[19]
  viability, T/C: 103%
[20]
  viability, T/C: 112%
[21]
  viability, T/C: 125%
[22]
  viability, T/C: 133%
[23]
  viability, T/C: 193%
[24]
  viability, T/C: 113%
[25]
  viability, T/C: 107%
[26]
  viability, T/C: 124%
[27]
  viability, T/C: 138%
[28]
  viability, T/C: 127%
[29]
  viability, T/C: 153%
[30]
  viability, T/C: 114%
[31]
  viability, T/C: 125%
[32]
  viability, T/C: 138%
[33]
  viability, T/C: 166%
[34]
  viability, T/C: 154%
[35]
  viability, T/C: 166%
[36]
  viability, T/C: 96.7%

## COc1ccc([C@@H](O)c2cc(-c3ncnc4cc(N5CCOCC5)ccc34)c(F)cc2Cl)nn1 + Nc1ccc(C#CCN(C(=O)Cc2ncc(C(F)(F)F)cc2C(F)(F)F)c2ccc(F)cc2)nn1
Second compound 0.0316 µM
  pIC50: 5.82
Second compound 0.1 µM
  pIC50: 5.59
Second compound 0.316 µM
  pIC50: 5.56
Second compound 1 µM
  pIC50: 5.71
Second compound 3.16 µM
  pIC50: 5.89
Second compound 10 µM
  pIC50: 5.80
[1]
  viability, T/C: 81.2%
[2]
  viability, T/C: 89.7%
[3]
  viability, T/C: 70.9%
[4]
  viability, T/C: 55.3%
[5]
  viability, T/C: 42.4%
[6]
  viability, T/C: 34.8%
[7]
  viability, T/C: 104%
[8]
  viability, T/C: 81.8%
[9]
  viability, T/C: 75.1%
[10]
  viability, T/C: 59.8%
[11]
  viability, T/C: 46.2%
[12]
  viability, T/C: 39.2%
[13]
  viability, T/C: 110%
[14]
  viability, T/C: 88.5%
[15]
  viability, T/C: 73.1%
[16]
  viability, T/C: 70.6%
[17]
  viability, T/C: 46.2%
[18]
  viability, T/C: 33.1%
[19]
  viability, T/C: 94.2%
[20]
  viability, T/C: 87.4%
[21]
  viability, T/C: 79.8%
[22]
  viability, T/C: 62.6%
[23]
  viability, T/C: 40.2%
[24]
  viability, T/C: 29.4%
[25]
  viability, T/C: 95.9%
[26]
  viability, T/C: 89.9%
[27]
  viability, T/C: 72.9%
[28]
  viability, T/C: 49.1%
[29]
  viability, T/C: 47.6%
[30]
  viability, T/C: 34.6%
[31]
  viability, T/C: 110%
[32]
  viability, T/C: 100%
[33]
  viability, T/C: 82.5%
[34]
  viability, T/C: 60.3%
[35]
  viability, T/C: 35.1%
[36]
  viability, T/C: 31.4%

## Cn1ncnc1[C@H]1c2n[nH]c(=O)c3cc(F)cc(c23)N[C@@H]1c1ccc(F)cc1 + Nc1ccc(C#CCN(C(=O)Cc2ncc(C(F)(F)F)cc2C(F)(F)F)c2ccc(F)cc2)nn1
Second compound 0.0316 µM
  pIC50: < 7.00
Second compound 0.1 µM
  pIC50: < 7.00
Second compound 0.316 µM
  pIC50: < 7.00
Second compound 1 µM
  pIC50: < 7.00
Second compound 3.16 µM
  pIC50: < 7.00
Second compound 10 µM
  pIC50: < 7.00
Second compound 0.0316 µM, first compound 0.000316 µM
  viability, T/C: 91.5%
Second compound 0.0316 µM, first compound 0.001 µM
  viability, T/C: 115%
Second compound 0.0316 µM, first compound 0.00316 µM
  viability, T/C: 80.7%
Second compound 0.0316 µM, first compound 0.01 µM
  viability, T/C: 104%
[1]
  viability, T/C: 88.3%
[2]
  viability, T/C: 75.7%
Second compound 0.1 µM, first compound 0.000316 µM
  viability, T/C: 101%
Second compound 0.1 µM, first compound 0.001 µM
  viability, T/C: 106%
Second compound 0.1 µM, first compound 0.00316 µM
  viability, T/C: 110%
Second compound 0.1 µM, first compound 0.01 µM
  viability, T/C: 85.2%
[7]
  viability, T/C: 81.7%
[8]
  viability, T/C: 74.1%
Second compound 0.316 µM, first compound 0.000316 µM
  viability, T/C: 112%
Second compound 0.316 µM, first compound 0.001 µM
  viability, T/C: 108%
Second compound 0.316 µM, first compound 0.00316 µM
  viability, T/C: 86.1%
Second compound 0.316 µM, first compound 0.01 µM
  viability, T/C: 91.6%
[13]
  viability, T/C: 92.7%
[14]
  viability, T/C: 75.2%
Second compound 1 µM, first compound 0.000316 µM
  viability, T/C: 109%
Second compound 1 µM, first compound 0.001 µM
  viability, T/C: 93.6%
Second compound 1 µM, first compound 0.00316 µM
  viability, T/C: 98.8%
Second compound 1 µM, first compound 0.01 µM
  viability, T/C: 98.8%
[19]
  viability, T/C: 77%
[20]
  viability, T/C: 87.9%
Second compound 3.16 µM, first compound 0.000316 µM
  viability, T/C: 115%
Second compound 3.16 µM, first compound 0.001 µM
  viability, T/C: 111%
Second compound 3.16 µM, first compound 0.00316 µM
  viability, T/C: 98.1%
Second compound 3.16 µM, first compound 0.01 µM
  viability, T/C: 94.9%
[25]
  viability, T/C: 89.1%
[26]
  viability, T/C: 92.4%
Second compound 10 µM, first compound 0.000316 µM
  viability, T/C: 101%
Second compound 10 µM, first compound 0.001 µM
  viability, T/C: 111%
Second compound 10 µM, first compound 0.00316 µM
  viability, T/C: 108%
Second compound 10 µM, first compound 0.01 µM
  viability, T/C: 95.7%
[31]
  viability, T/C: 86.1%
[32]
  viability, T/C: 77.9%
